For 13 compounds, IC90 results are on record in US12421211B2, “Heterocyclic compounds” (Hoffmann-La Roche Inc., priority 2021, dated 2025).

Structures can show the parent of a compound that is named as a salt. Where two headings read alike, the source gives them in different places.

The test deals with Acinetobacter baumannii ATCC17961. Put plainly: Antimicrobial susceptibility testing: 90% growth inhibitory concentration (IC90) determination. The settings on record: read-out: ATCC 17961 IC90. Type of test: cell-based. Here is the method:
Assay Procedures Antimicrobial Susceptibility Testing: 90% Growth Inhibitory Concentration (IC90) Determination
The in vitro antimicrobial activity of the compounds was determined according to the following procedure:
The assay used a 10-points Iso-Sensitest broth medium to measure quantitatively the in vitro activity of the compounds against Acinetobacter baumannii ATCC17961.
Stock compounds in DMSO were serially twofold diluted (e.g. range from 50 to 0.097 μM final concentration) in 384 wells microtiter plates and inoculated with 49 μl the bacterial suspension in Iso-Sensitest medium to have a final cell concentration of ˜5×10^(5) CFU/ml in a final volume/well of 50 ul/well. Microtiter plates were incubated at 35±2° C.
Bacterial cell growth was determined with the measurement of optical density at λ=600 nm each 20 minutes over a time course of 16h. Growth inhibition was calculated during the logarithmic growth of the bacterial cells with determination of the concentration inhibiting 50% (IC50) and 90% (IC90) of the growth.
Table 1 provides the 90% growth inhibitory concentrations (IC90) in micromoles per liter of the compounds of present invention obtained against the strain Acinetobacter baumannii ATCC17961.

Where [1] appears, read: Acinetobacter baumannii, ATCC17961, 16 h, 90% growth inhibitory concentration, Acinetobacter baumannii ATCC17961, Iso-Sensitest broth, OD 600 nm over 16 h.
The mark [2] stands for this setting: Acinetobacter baumannii, ATCC17961, 16 h.

As a reminder, the IC90 is the concentration needed for an effect of 90%.

In the case of `COCCn1cc(-c2ccc(-c3cnc(C(=O)Nc4ccc(C(=O)N5CCN(C(=O)C6CC[N+](C)(CC(N)=O)CC6)CC5)c(Cl)c4)n3C)c(F)c2F)c(C)n1` (stereo not shown) [Example B2, N-[4-[4-[1-(2-amino-2-oxo-ethyl)-1-methyl-piperidin-1-ium-4-carbonyl]piperazine-1-carbonyl]-3-chloro-phenyl]-5-[2,3-difluoro-4-[1-(2-methoxyethyl)-3-methyl-pyrazol-4-yl]phenyl]-1-methyl-imidazole-2-carboxamide; formate], the IC90 under setting [1] was 120 nM.

For the compound `COCCn1cc(-c2ccc(-c3cnc(C(=O)Nc4ccc(C(=O)N5CCN(C(=O)C6CC[N+](C)(CC(N)=O)CC6)CC5)c(Cl)c4)n3C)c(F)c2F)c(C)n1` (stereo not shown) [Example B3, N-[4-[4-[1-(2-amino-2-oxo-ethyl)-1-methyl-piperidin-1-ium-4-carbonyl]piperazine-1-carbonyl]-3-chloro-phenyl]-5-[2,3-difluoro-4-[1-(2-methoxyethyl)-3-methyl-pyrazol-4-yl]phenyl]-1-methyl-imidazole-2-carboxamide; formate], the IC90 (90% growth inhibitory concentration, Acinetobacter baumannii ATCC17961, Iso-Sensitest broth, OD 600 nm over 16 h, formate) came to 130 nM.

Turning to `Cc1nn(CC(F)F)cc1-c1ccc(-c2cnc(C(=O)Nc3ccc(C(=O)N4CCN(C(=O)C5CC[N+](C)(CC(N)=O)CC5)CC4)c(Cl)c3)n2C)c(F)c1F` (stereo not shown) [Example B7, N-[4-[4-[1-(2-amino-2-oxo-ethyl)-1-methyl-piperidin-1-ium-4-carbonyl]piperazine-1-carbonyl]-3-chloro-phenyl]-5-[4-[1-(2,2-difluoroethyl)-3-methyl-pyrazol-4-yl]-2,3-difluoro-phenyl]-1-methyl-imidazole-2-carboxamide; formate], the IC90 under setting [2] was determined as 170 nM.

For the compound `COCCn1nc(C)c(-c2ccc(-c3cnc(C(=O)Nc4ccc(C(=O)N5CCN(C(=O)C6CC[N+](C)(CCO)CC6)CC5)c(Cl)c4)n3C)c(F)c2F)c1C` (stereo not shown) [Example B8, N-[3-chloro-4-[4-[1-(2-hydroxyethyl)-1-methyl-piperidin-1-ium-4-carbonyl]piperazine-1-carbonyl]phenyl]-5-[2,3-difluoro-4-[1-(2-methoxyethyl)-3,5-dimethyl-pyrazol-4-yl]phenyl]-1-methyl-imidazole-2-carboxamide; formate], under setting [2], the IC90 was found to be 280 nM.

Turning to `COCCn1nc(C)c(-c2ccc(-c3cnc(C(=O)Nc4ccc(C(=O)N5CCN(C(=O)C6CC[N+](C)(CCOC)CC6)CC5)c(Cl)c4)n3C)c(F)c2F)c1C` (stereo not shown) [Example B9, N-[3-chloro-4-[4-[1-(2-methoxyethyl)-1-methyl-piperidin-1-ium-4-carbonyl]piperazine-1-carbonyl]phenyl]-5-[2,3-difluoro-4-[1-(2-methoxyethyl)-3,5-dimethyl-pyrazol-4-yl]phenyl]-1-methyl-imidazole-2-carboxamide; formate], the IC90 under setting [2] amounted to 510 nM.

Consider `COCCn1nc(C)c(-c2ccc(-c3cnc(C(=O)Nc4ccc(C(=O)N5CCN(C(=O)C6CC[N+](C)(CC(N)=O)CC6)CC5)c(Cl)c4)n3C)cc2)c1C` (stereo not shown) [Example B10, N-[4-[4-[1-(2-amino-2-oxo-ethyl)-1-methyl-piperidin-1-ium-4-carbonyl]piperazine-1-carbonyl]-3-chloro-phenyl]-5-[4-[1-(2-methoxyethyl)-3,5-dimethyl-pyrazol-4-yl]phenyl]-1-methyl-imidazole-2-carboxamide; formate], for which the IC90 under setting [2] was 200 nM.

Take `COCCn1nc(C)c(-c2ccc(-c3cnc(C(=O)Nc4ccc(C(=O)N5CCN(C(=O)C6CC[N+](C)(CCO)CC6)CC5)c(Cl)c4)n3C)cc2)c1C` (stereo not shown) [Example B11, N-[3-chloro-4-[4-[1-(2-hydroxyethyl)-1-methyl-piperidin-1-ium-4-carbonyl]piperazine-1-carbonyl]phenyl]-5-[4-[1-(2-methoxyethyl)-3,5-dimethyl-pyrazol-4-yl]phenyl]-1-methyl-imidazole-2-carboxamide; formate]: the IC90 under setting [2] stood at 170 nM.

`COCCn1ncc(-c2ccc(-c3cnc(C(=O)Nc4ccc(C(=O)N5CCN(C(=O)C6CC[N+](C)(CCO)CC6)CC5)c(Cl)c4)n3C)c(F)c2F)c1C` (stereo not shown) [Example B12, N-[3-chloro-4-[4-[1-(2-hydroxyethyl)-1-methyl-piperidin-1-ium-4-carbonyl]piperazine-1-carbonyl]phenyl]-5-[2,3-difluoro-4-[1-(2-methoxyethyl)-5-methyl-pyrazol-4-yl]phenyl]-1-methyl-imidazole-2-carboxamide; formate]: under setting [2], the IC90 came out at 110 nM.

As to `COCCn1ncc(-c2ccc(-c3cnc(C(=O)Nc4ccc(C(=O)N5CCC(C(=O)N6CC[N+](C)(CC(=O)O)CC6)CC5)c(Cl)c4)n3C)c(F)c2F)c1C` [Example B13, 2-[4-[1-[2-chloro-4-[[5-[2,3-difluoro-4-[1-(2-methoxyethyl)-5-methyl-pyrazol-4-yl]phenyl]-1-methyl-imidazole-2-carbonyl]amino]benzoyl]piperidine-4-carbonyl]-1-methyl-piperazin-1-ium-l-yl]acetic acid; 2,2,2-trifluoroacetate], under setting [1], the IC90 stood at 810 nM.

`COCCn1ncc(-c2ccc(-c3cnc(C(=O)Nc4ccc(C(=O)N5CCC(C(=O)N6CC[N+](C)(CC(N)=O)CC6)CC5)c(Cl)c4)n3C)c(F)c2F)c1C` [Example B15, N-[4-[4-[4-(2-amino-2-oxo-ethyl)-4-methyl-piperazin-4-ium-1-carbonyl]piperidine-1-carbonyl]-3-chloro-phenyl]-5-[2,3-difluoro-4-[1-(2-methoxyethyl)-5-methyl-pyrazol-4-yl]phenyl]-1-methyl-imidazole-2-carboxamide; formate]: the IC90 under setting [1] was 170 nM.

In the case of `COCCn1ncc(-c2ccc(-c3cnc(C(=O)Nc4ccc(C(=O)N5CCN(C(=O)C6CC[N+](C)(CC(=O)NN)CC6)CC5)c(Cl)c4)n3C)c(F)c2F)c1C` (stereo not shown) [Example B17, N-[3-chloro-4-[4-[1-(2-hydrazino-2-oxo-ethyl)-1-methyl-piperidin-1-ium-4-carbonyl]piperazine-1-carbonyl]phenyl]-5-[2,3-difluoro-4-[1-(2-methoxyethyl)-5-methyl-pyrazol-4-yl]phenyl]-1-methyl-imidazole-2-carboxamide; formic acid; formate], the IC90 under setting [2] is 260 nM.

Regarding `COCCn1cc(-c2ccc(-c3cnc(C(=O)Nc4ccc(C(=O)N5CCN(C(=O)C6CC[N+](CC(=O)O)(CC7CNC7)CC6)CC5)c(Cl)c4)n3C)c(F)c2F)c(C)n1` (stereo not shown) [Example B18, 2-[1-(azetidin-3-ylmethyl)-4-[4-[2-chloro-4-[[5-[2,3-difluoro-4-[1-(2-methoxyethyl)-3-methyl-pyrazol-4-yl]phenyl]-1-methyl-imidazole-2-carbonyl]amino]benzoyl]piperazine-1-carbonyl]piperidin-1-ium-1-yl]acetic acid; formic acid; formate], under setting [2], the IC90 came out at 430 nM.

On to `COCCn1ncc(-c2ccc(-c3cnc(C(=O)Nc4ccc(C(=O)N5CCN(C(=O)C6CC[N+](CC(=O)O)(CC7CNC7)CC6)CC5)c(Cl)c4)n3C)c(F)c2F)c1C` (stereo not shown) [Example B20, 2-[1-(azetidin-3-ylmethyl)-4-[4-[2-chloro-4-[[5-[2,3-difluoro-4-[1-(2-methoxyethyl)-5-methyl-pyrazol-4-yl]phenyl]-1-methyl-imidazole-2-carbonyl]amino]benzoyl]piperazine-1-carbonyl]piperidin-1-ium-1-yl]acetic acid; formic acid; formate], for which the 90% effect concentration (IC90) under setting [1] was found to be 220 nM.
